The values below come from patent US20050100534A1 (priority 2000, published 2005).

Holding throughout (assay type): physicochemical
One data set can be described thus: pKa.
Another data set is described as follows: Solubility in water.
The nature of data set [1]: Storage temperature (thermal stability).
A further data set is described as follows: pH stability. The note with it: for pH stability: pH range in which stable.
The nature of the next data set: Solubility in methanol.

As to `O=C(O)[C@H](CO)O[C@@H]1O[C@H](CO)[C@@H](O)[C@H](O)[C@@H]1O`, the pKa (in general, the negative logarithm of the acid dissociation constant) in “pKa” is approximately 4.6. For the same compound, in “Solubility in water”, the Solubility in water entry is listed as “Very good; 60-70% (w/v)”. For the same compound, the Storage temperature entry in data set [1] is “up to 95 °C”. Further, the pH stability in “pH stability” is 2-12. In “Solubility in methanol”, this compound showed a Solubility in methanol of 10%.
In the case of `NC(=O)[C@H](CO)O[C@@H]1O[C@H](CO)[C@@H](O)[C@H](O)[C@@H]1O` [Firoin-A, β-mannosylglyceramide], the “pH stability: alkaline hydrolysis above pH” value in “pH stability” (pH above which alkaline hydrolysis occurs) was “>pH 8-9”. For the same compound, the pH stability result in “pH stability” is reported as “Alkaline hydrolysis;”.
